COc1cccc(OC)c1NC(=O)Cc1c(-c2ccccc2)c2cc3c(cc2oc1=O)CCC3 [Example 1, N-(2,6-dimethoxyphenyl)-2-(2-oxo-4-phenyl-2,6,7,8-tetrahydrocyclopenta[g]chromen-3-yl)acetamide]
melting point: 213 to 215 °C

CCOc1cccc(OCC)c1NC(=O)Cc1c(-c2ccccc2)c2cc3c(cc2oc1=O)CCC3 [Example 2]
melting point: 216 to 219 °C

CC(C)c1cccc(C(C)C)c1NC(=O)Cc1c(-c2ccccc2)c2cc3c(cc2oc1=O)CCC3 [Example 3]
melting point: 261 to 263 °C

CCc1cccc(CC)c1NC(=O)Cc1c(-c2ccccc2)c2cc3c(cc2oc1=O)CCC3 [Example 4]
melting point: 279 to 281 °C

COc1cccc(C)c1NC(=O)Cc1c(-c2ccccc2)c2cc3c(cc2oc1=O)CCC3 [Example 5]
melting point: 232 to 237 °C

CCc1ccccc1NC(=O)Cc1c(-c2ccccc2)c2cc3c(cc2oc1=O)CCC3 [Example 6]
melting point: 234 to 237 °C

COc1cc(C)cc(OC)c1NC(=O)Cc1c(-c2ccccc2)c2cc3c(cc2oc1=O)CCC3 [Example 8]
melting point: 237 to 239 °C

COc1cccc(O)c1NC(=O)Cc1c(-c2ccccc2)c2cc3c(cc2oc1=O)CCC3 [Example 9]
melting point: 179 to 181 °C

COc1cc(O)cc(OC)c1NC(=O)Cc1c(-c2ccccc2)c2cc3c(cc2oc1=O)CCC3 [Example 10]
melting point: 160 °C (dec.)

COc1cc(O)c(NC(=O)Cc2c(-c3ccccc3)c3cc4c(cc3oc2=O)CCC4)c(OC)c1 [Example 11]
melting point: 170 to 172 °C

O=C(Cc1c(-c2ccccc2)c2cc3c(cc2oc1=O)CCC3)Nc1ccccc1OC(F)(F)F [Example 12]
melting point: 191 to 194 °C

O=C(Cc1c(-c2ccccc2)c2cc3c(cc2oc1=O)CCC3)Nc1c(OC2CCCC2)cccc1OC1CCCC1 [Example 14]
melting point: 224 to 226 °C

O=C(Cc1c(-c2ccccc2)c2cc3c(cc2oc1=O)CCC3)Nc1c(Cl)cncc1Cl [Example 15, N-(3,5-dichloro-4-pyridyl)-2-(2-oxo-4-phenyl-2,6,7,8-tetrahydrocyclopenta[g]chromen-3-yl)acetamide]
melting point: 257 to 259 °C

O=C(Cc1c(-c2ccccc2)c2cc3c(cc2oc1=O)CCC3)Nc1c(F)cc(F)cc1F [Example 17]
melting point: 247 to 249 °C

O=C(Cc1c(-c2ccccc2)c2cc3c(cc2oc1=O)CCC3)Nc1c(F)cccc1C(F)(F)F [Example 18]
melting point: 194 to 196 °C

O=C(Cc1c(-c2ccccc2)c2cc3c(cc2oc1=O)CCC3)Nc1ccc(Cl)cc1OC(F)(F)F [Example 19]
melting point: 189 to 191 °C

O=C(Cc1c(-c2ccccc2)c2cc3c(cc2oc1=O)CCC3)Nc1ccc(F)cc1C(F)(F)F [Example 20]
melting point: 186 to 187 °C

COc1cccc(OC)c1NC(=O)Cc1c(-c2ccccc2)c2cc(Cl)c(C)cc2oc1=O [Example 22]
melting point: 231 to 232 °C

COc1cccc(OC)c1NC(=O)Cc1c(-c2ccccc2C)c2cc(Cl)c(C)cc2oc1=O [Example 23]
melting point: 176 to 177 °C

CCOc1cccc(OCC)c1NC(=O)Cc1c(-c2ccccc2)c2cc(Cl)c(C)cc2oc1=O [Example 24]
melting point: 235 to 236 °C

Cc1cc2oc(=O)c(CC(=O)Nc3c(C(C)C)cccc3C(C)C)c(-c3ccccc3Cl)c2cc1Cl [Example 25]
melting point: 245 to 246 °C

CCc1cccc(CC)c1NC(=O)Cc1c(-c2ccccc2)c2cc(Cl)c(C)cc2oc1=O [Example 26]
melting point: 250 to 251 °C

CCOc1cccc(OCC)c1NC(=O)Cc1c(-c2ccccc2)c2cc(C)c(C)cc2oc1=O [Example 29]
melting point: 230 to 231 °C

CCc1cccc(CC)c1NC(=O)Cc1c(-c2ccccc2)c2cc(C)c(C)cc2oc1=O [Example 30]
melting point: 259 to 260 °C

Cc1cc2oc(=O)c(CC(=O)Nc3c(C(C)C)cccc3C(C)C)c(-c3ccccc3)c2cc1C [Example 31]
melting point: 252 to 253 °C

COc1cccc(OC)c1NC(=O)Cc1c(-c2ccccc2)c2cc(Cl)c(Cl)cc2oc1=O [Example 36]
melting point: 249 to 250 °C

CCOc1cccc(OCC)c1NC(=O)Cc1c(-c2ccccc2)c2cc(Cl)c(Cl)cc2oc1=O [Example 37]
melting point: 246 to 247 °C

CC(C)c1cccc(C(C)C)c1NC(=O)Cc1c(-c2ccccc2)c2cc(Cl)c(Cl)cc2oc1=O [Example 39]
melting point: 289 to 290 °C

COc1cccc(OC)c1NC(=O)Cc1c(-c2ccccc2)c2cc(Cl)c(Cl)c(Cl)c2oc1=O [Example 40]
melting point: 289 to 291 °C

COc1cccc(OC)c1NC(=O)Cc1c(-c2ccccc2)c2cc(F)c(F)cc2oc1=O [Example 41]
melting point: 196 to 198 °C

CC(C)c1cccc(C(C)C)c1NC(=O)Cc1c(-c2ccccc2)c2cc(F)c(F)cc2oc1=O [Example 42]
melting point: 255 to 256 °C

O=C(Cc1c(-c2ccccc2)c2cc(F)c(F)cc2oc1=O)Nc1c(OC2CCCC2)cccc1OC1CCCC1 [Example 44]
melting point: 253 to 254 °C

COc1cccc(OC)c1NC(=O)Cc1c(-c2ccccc2)c2cc(C)c(Cl)cc2oc1=O [Example 45]
melting point: 247 to 249 °C

Cc1cc2c(-c3ccccc3)c(CC(=O)Nc3c(C(C)C)cccc3C(C)C)c(=O)oc2cc1Cl [Example 46]
melting point: 280 to 282 °C

COc1cccc(OC)c1NC(=O)Cc1c(-c2ccccc2)c2cc(CN(C)C)c(Cl)cc2oc1=O [Example 70, 2-[7-chloro-6-{(dimethylamino)methyl}-2-oxo-4-phenyl-2H-chromen-3-yl]-N-(2,6-dimethoxyphenyl)acetamide]
melting point: 221 to 223 °C

COc1cccc(OC)c1NC(=O)Cc1c(-c2ccccc2)c2cc(CN3CCOCC3)c(Cl)cc2oc1=O [Example 71]
melting point: 209 to 211 °C

CC(C)c1cccc(C(C)C)c1NC(=O)Cc1c(-c2ccccc2)c2cc(CN(C)C)c(Cl)cc2oc1=O [Example 72]
melting point: 301 to 303 °C

CC(C)c1cccc(C(C)C)c1NC(=O)Cc1c(-c2ccccc2)c2cc(CN3CCOCC3)c(Cl)cc2oc1=O [Example 73]
melting point: 296 to 298 °C

O=C(Cc1c(-c2ccccc2)c2cc(CN3CCOCC3)c(Cl)cc2oc1=O)Nc1ccc(Cl)cc1C(F)(F)F [Example 74, 2-[7-chloro-6-{(morpholin-4-yl)methyl}-2-oxo-4-phenyl-2H-chromen-3-yl]-N-(4-chloro-2-trifluoromethylphenyl)acetamide]
melting point: 205 to 207 °C

COc1cccc(OC)c1NC(=O)Cc1c(-c2ccccc2)c2cc(COC(C)=O)c(Cl)cc2oc1=O [Example 80, [7-chloro-3-{2-(2,6-dimethoxyanilino)-2-oxoethyl}-2-oxo-4-phenyl-2H-chromen-6-yl]methyl acetate]
melting point: 229 to 231 °C

CC(=O)OCc1cc2c(-c3ccccc3)c(CC(=O)Nc3c(C(C)C)cccc3C(C)C)c(=O)oc2cc1Cl [Example 81, [7-chloro-3-{2-(2,6-isopropylanilino)-2-oxoethyl}-2-oxo-4-phenyl-2H-chromen-6-yl]]methyl acetate]
melting point: 290 to 292 °C

CC(=O)OCc1cc2c(-c3ccccc3)c(CC(=O)Nc3ccc(Cl)cc3C(F)(F)F)c(=O)oc2cc1Cl [Example 82, [7-chloro-3-{2-(4-chloro-2-trifluoromethylanilino)-2-oxoethyl}-2-oxo-4-phenyl-2H-chromen-6-yl]methyl acetate]
melting point: 186 to 187 °C
